ChEMBL document CHEMBL1139186, “Design and evaluation of 'Linkerless' hydroxamic acids as selective HDAC8 inhibitors” (Bioorg Med Chem Lett, 2007)
Activity calls are given as the source filed them. No cut-off for these calls is given here.

What was measured:
Histone deacetylase 1 = Histone deacetylase 1 (Homo sapiens, UniProt Q13547); test: Inhibition of human HDAC1 by [3H]acetyl histone peptide assay
[1] = target: T1, Protein deacetylase HDAC6 (Homo sapiens, UniProt Q9UBN7); test: Inhibition of human HDAC6 by [3H]acetyl histone peptide assay
T1 sequence (Q9UBN7 whole entry): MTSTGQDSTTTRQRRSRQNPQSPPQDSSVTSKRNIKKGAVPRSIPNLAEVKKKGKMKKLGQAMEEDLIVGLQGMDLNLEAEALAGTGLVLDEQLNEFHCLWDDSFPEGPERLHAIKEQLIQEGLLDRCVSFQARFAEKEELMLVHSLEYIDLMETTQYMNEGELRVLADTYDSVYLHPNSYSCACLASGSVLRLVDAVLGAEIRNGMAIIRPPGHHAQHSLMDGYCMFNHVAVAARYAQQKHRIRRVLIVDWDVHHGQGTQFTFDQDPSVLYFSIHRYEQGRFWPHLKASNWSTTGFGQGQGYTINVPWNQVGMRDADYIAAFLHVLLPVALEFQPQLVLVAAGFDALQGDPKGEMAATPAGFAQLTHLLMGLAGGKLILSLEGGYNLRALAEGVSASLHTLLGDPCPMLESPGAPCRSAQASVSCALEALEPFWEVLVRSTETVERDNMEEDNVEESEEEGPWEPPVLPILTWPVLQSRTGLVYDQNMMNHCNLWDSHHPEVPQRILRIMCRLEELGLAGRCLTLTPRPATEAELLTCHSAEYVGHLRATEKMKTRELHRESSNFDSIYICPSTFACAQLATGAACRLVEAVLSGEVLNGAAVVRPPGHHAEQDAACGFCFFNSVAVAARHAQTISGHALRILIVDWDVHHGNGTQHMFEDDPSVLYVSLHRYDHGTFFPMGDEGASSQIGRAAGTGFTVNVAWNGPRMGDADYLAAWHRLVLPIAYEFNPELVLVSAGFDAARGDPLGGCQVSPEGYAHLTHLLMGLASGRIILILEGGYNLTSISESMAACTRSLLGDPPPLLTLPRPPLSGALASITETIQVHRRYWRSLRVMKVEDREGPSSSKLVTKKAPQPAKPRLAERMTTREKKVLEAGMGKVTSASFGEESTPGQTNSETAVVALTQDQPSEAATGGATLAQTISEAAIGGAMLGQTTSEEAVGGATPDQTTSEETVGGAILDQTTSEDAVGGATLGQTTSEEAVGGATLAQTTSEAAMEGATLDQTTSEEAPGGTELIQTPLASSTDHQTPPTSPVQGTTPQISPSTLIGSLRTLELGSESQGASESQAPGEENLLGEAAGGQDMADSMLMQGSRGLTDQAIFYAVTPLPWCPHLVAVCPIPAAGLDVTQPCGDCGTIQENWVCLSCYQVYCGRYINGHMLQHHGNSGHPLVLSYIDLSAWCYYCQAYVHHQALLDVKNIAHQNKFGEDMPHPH

HeLa [2] = test: Increase in lysine-acetylated tubulin levels in HeLa cells by Western blot; type: functional, cell-based; conditions: Homo sapiens
HeLa [3] = test: Increase in lysine-acetylated histone H4 levels in HeLa cells by Western blot; type: functional, cell-based; conditions: Homo sapiens
HEK293 [4] = test: Increase in lysine-acetylated tubulin levels in HEK293 cells by Western blot; type: functional, cell-based; conditions: Homo sapiens
HEK293 [5] = test: Increase in lysine-acetylated histone H4 levels in HEK293 cells by Western blot; type: functional, cell-based; conditions: Homo sapiens
Histone deacetylase 8 = target: T2, Histone deacetylase 8 (Homo sapiens, UniProt Q9BY41)
T2 sequence (Q9BY41 whole entry): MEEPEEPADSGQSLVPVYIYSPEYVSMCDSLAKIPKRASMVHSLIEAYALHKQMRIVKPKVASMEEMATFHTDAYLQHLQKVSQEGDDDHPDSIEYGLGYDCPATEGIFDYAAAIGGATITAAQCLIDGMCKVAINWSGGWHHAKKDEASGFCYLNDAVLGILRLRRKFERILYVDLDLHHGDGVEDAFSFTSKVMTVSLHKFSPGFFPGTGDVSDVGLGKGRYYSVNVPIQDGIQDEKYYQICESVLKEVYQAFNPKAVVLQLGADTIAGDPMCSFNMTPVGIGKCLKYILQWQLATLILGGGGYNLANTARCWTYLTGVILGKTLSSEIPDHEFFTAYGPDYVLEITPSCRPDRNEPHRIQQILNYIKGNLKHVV
Description: Inhibition of human HDAC8 by [3H]acetyl histone peptide assay

Chain of Histone deacetylase 1 (Q13547 whole entry): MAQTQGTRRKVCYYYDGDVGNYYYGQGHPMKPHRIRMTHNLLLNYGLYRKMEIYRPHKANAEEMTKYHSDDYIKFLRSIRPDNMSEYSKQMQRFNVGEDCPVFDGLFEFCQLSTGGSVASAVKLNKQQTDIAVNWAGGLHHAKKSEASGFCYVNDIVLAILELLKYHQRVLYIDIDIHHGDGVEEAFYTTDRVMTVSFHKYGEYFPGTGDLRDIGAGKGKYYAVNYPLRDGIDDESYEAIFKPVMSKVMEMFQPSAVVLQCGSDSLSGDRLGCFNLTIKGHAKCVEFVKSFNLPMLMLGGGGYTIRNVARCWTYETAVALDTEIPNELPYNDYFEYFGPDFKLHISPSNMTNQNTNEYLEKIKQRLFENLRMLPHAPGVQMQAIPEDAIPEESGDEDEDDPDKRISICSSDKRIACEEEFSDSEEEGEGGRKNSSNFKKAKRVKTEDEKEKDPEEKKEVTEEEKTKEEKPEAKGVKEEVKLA

Q: How did the IC50 (Histone deacetylase 1) turn out when `O=C(/C=C/c1cccc2ccccc12)NO` was run?
A: Its IC50 is over 100 µM.

Q: And the IC50 [1]?
A: Its IC50 is 82 µM.

Q: What about the Activity (HeLa [2]) of the same compound?
A: The Activity was “Active”.

Q: What about the Activity (HeLa [3]) of the same compound?
A: Its Activity is “Active”.

Q: What about the Activity (HEK293 [4]) of the same compound?
A: The Activity was “Active”.

Q: What about the Activity (HEK293 [5]) of the same compound?
A: The Activity was “Active”.

Q: What about the IC50 (Histone deacetylase 8) of the same compound?
A: Its IC50 is 0.7 µM.

Q: Which IC50 (Histone deacetylase 1) does the source give for `O=C(NO)c1cccc(-c2ccccc2)c1` here?
A: Its IC50 is over 100 µM.

Q: What about the IC50 [1] of the same compound?
A: Its IC50 is over 100 µM.

Q: What about the IC50 (Histone deacetylase 8) of the same compound?
A: The IC50 was 20 µM.

Q: Which IC50 (Histone deacetylase 8) does the source give for `O=C(NO)c1cccc(Oc2ccccc2)c1` here?
A: Its IC50 is 6.6 µM.

Q: How did the IC50 (Histone deacetylase 1) turn out when `O=C(NO)c1ccc(-c2cccc3ccccc23)cc1` was run?
A: Its IC50 is over 100 µM.

Q: What about the IC50 [1] of the same compound?
A: Its IC50 is 55 µM.

Q: What about the IC50 (Histone deacetylase 8) of the same compound?
A: The IC50 was 0.3 µM.

Q: With `O=C(NO)c1cccc2ccccc12` as the compound, how does the IC50 (Histone deacetylase 1) read?
A: Its IC50 is over 100 µM.

Q: What about the IC50 [1] of the same compound?
A: Its IC50 is over 100 µM.

Q: And the IC50 (Histone deacetylase 8)?
A: The IC50 was 14 µM.
